Experimental data reported in article PMC8476755 (Frontiers in Chemistry, 2021).
Where two headings read alike, the source gives them in different places.

Legend:
[1] = target: T1, GAT3 wt (Homo sapiens, UniProt P48066); assay: [3H]GABA uptake assay, transient expression in tsA201 cells; assay type: cell-based
T1 construct: expressed in transfected cells; host or cells: tsA201 (transformed HEK293), transient
T1 sequence (P48066 1-632): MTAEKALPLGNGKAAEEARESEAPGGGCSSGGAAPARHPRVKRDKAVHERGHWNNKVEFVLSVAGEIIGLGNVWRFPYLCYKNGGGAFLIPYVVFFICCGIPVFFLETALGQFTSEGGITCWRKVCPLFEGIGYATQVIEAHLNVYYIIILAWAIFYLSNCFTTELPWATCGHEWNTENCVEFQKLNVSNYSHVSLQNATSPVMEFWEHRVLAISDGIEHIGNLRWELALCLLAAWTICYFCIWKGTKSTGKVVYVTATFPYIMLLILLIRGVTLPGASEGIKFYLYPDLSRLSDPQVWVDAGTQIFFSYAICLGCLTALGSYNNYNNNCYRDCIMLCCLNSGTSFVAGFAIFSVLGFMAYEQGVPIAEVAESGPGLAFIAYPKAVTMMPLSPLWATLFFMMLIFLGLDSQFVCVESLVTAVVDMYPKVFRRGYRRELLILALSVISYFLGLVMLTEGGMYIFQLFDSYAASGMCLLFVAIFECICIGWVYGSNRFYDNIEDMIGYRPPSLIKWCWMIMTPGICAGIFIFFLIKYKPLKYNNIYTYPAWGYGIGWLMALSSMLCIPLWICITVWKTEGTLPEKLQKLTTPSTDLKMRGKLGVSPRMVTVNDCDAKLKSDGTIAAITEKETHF
Excerpt: (§1) FIGURE 6 (A) Pocket alignment of the orthosteric site of the four GAT subtypes colored according to the default ClustalX color scheme ([Larkin et al., 2007]). The pocket was defined as all corresponding GAT residues (15 in total) that are within a distance of 4.5 Å of the co-crystallized ligand leucine in the homologous LeuT crystal structure (PDB ID 2A65) ([Yamashita et al., 2005]) according to the alignment by Kickinger et al. ([Kickinger et al., 2019]). The mutated residues in BGT1 and the corresponding residues in GAT1-3 are indicated by a red box. The numbering of all residues within the orthosteric pocket can be found in the Supplementary Table S1.
(§2) The tsA201 cell line (a transformed HEK293 cell line), the Flp-In CHO cell lines stably expressing human (h) GATs and the HEK293 cell line stably expressing human α1β2γ2 GABAA receptors have been described previously and were cultured accordingly ([Al-Khawaja et al., 2014]; [Falk-Petersen et al., 2020]). The tsA201 cell line used for transient expression of hGATs was transfected with DNA constructs (8 μg per 10 cm plate) using 40 μL PolyFect transfection reagent according to the manufacturer’s protocol (Qiagen).
(§3) Briefly, cells were seeded in white 96-well plates (White Opaque Tissue Culture (TC) plated 96-well Microplate) pre-coated with PDL. Medium was removed on the following day and cells washed with 100 µL/well assay buffer (HBSS supplemented with 20 mM HEPES, 1 mM CaCl2 and 1 mM MgCl2, pH 7.4). […] The cells were washed 3 times with 100 µL/well ice-cold assay buffer, 150 µL/well MicroScint™20 was subsequently added before the plate was shaken for at least 1 h. The plate was counted in a Packard TopCounter microplate scintillation counter (PerkinElmer) for 3 min per well. […] Data presented is the pooled data of at least three independent experiments with three technical replicates if not stated otherwise in figure legends. Concentration–response curves were fitted by non-linear regression to the sigmoidal concentration-response model with GraphPad Prism (version 9.0.0, GraphPad Software, San Diego, CA, United States) as described ([Lie et al., 2020]).

[2] = target: T2, BGT1 wt (Homo sapiens, UniProt P48065); assay: as above; assay type: cell-based; settings: for IC50: BGT1 wt, tsA201 cells; for Selectivity ratio for BGT1 over GAT3: [3H]GABA uptake IC50 GAT3 wt / BGT1 wt
T2 construct: expressed in transfected cells; host or cells: tsA201 (transformed HEK293), transient
T2 sequence (P48065 1-614): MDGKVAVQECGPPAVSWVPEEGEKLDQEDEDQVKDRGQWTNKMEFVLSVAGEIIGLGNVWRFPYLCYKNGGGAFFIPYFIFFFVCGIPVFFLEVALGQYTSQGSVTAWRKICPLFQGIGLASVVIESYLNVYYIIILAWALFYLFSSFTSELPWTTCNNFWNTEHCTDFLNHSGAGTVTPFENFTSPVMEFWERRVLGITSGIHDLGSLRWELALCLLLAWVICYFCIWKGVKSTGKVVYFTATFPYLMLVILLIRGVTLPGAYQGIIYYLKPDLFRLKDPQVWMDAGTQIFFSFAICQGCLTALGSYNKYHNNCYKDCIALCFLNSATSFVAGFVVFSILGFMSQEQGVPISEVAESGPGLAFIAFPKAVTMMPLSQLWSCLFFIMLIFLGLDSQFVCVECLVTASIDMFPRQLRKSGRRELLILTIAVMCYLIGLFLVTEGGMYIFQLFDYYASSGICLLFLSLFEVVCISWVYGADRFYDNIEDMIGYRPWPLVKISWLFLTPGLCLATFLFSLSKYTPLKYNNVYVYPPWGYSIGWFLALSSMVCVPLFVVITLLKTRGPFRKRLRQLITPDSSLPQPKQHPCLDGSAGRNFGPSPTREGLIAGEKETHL
Excerpt: as §1, §2, §3

IC50 [1]	IC50 ([2]; 30 nM [3H]GABA, read-out: IC50)	IC50 ([2]; read-out: pIC50 ± S.E.M. (converted))	Selectivity ratio for BGT1 over GAT3 [2]	SMILES
610 µM	1500 nM	1260 nM	407	N[C@@]12CC[C@H](C(=O)O)[C@@H]1C2 [bicyclo-GABA, (1S,2S,5R)-5-aminobicyclo[3.1.0]hexane-2-carboxylic acid]
211 µM	9800 nM		22	CN[C@@]12CC[C@H](C(=O)O)[C@@H]1C2 [compound 2]
